Test results from PubChem BioAssay (NCI).
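In this assay, cells in 96-well plates receive the compound at five concentrations for 48 hours. Endpoints are linearly interpolated between the surrounding concentrations. GI50 marks 50% less growth. TGI: concentration producing complete growth inhibition.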

Legend:
Assay in all cases: NCI tumour cell line growth inhibition, 48 h
IGROV1 ovarian = test system: IGROV1 ovarian
HCT-116 colon = test system: HCT-116 colon
NCI-H460 lung = test system: NCI-H460 lung
COLO 205 colon = test system: COLO 205 colon
OVCAR-4 ovarian = test system: OVCAR-4 ovarian
U251 CNS = test system: U251 CNS
DU-145 prostate = test system: DU-145 prostate
786-0 renal = test system: 786-0 renal
RPMI-8226 leukemia = test system: RPMI-8226 leukemia
MOLT-4 leukemia = test system: MOLT-4 leukemia
SK-MEL-2 melanoma = test system: SK-MEL-2 melanoma
UO-31 renal = test system: UO-31 renal
NCI-H226 lung = test system: NCI-H226 lung
SF-268 CNS = test system: SF-268 CNS
SNB-75 CNS = test system: SNB-75 CNS
NCI-H23 lung = test system: NCI-H23 lung
MDA-MB-468 breast = test system: MDA-MB-468 breast
LOX IMVI melanoma = test system: LOX IMVI melanoma
KM12 colon = test system: KM12 colon
TK-10 renal = test system: TK-10 renal
HCC-2998 colon = test system: HCC-2998 colon
SNB-19 CNS = test system: SNB-19 CNS
UACC-62 melanoma = test system: UACC-62 melanoma
A498 renal = test system: A498 renal
HL-60(TB) leukemia = test system: HL-60(TB) leukemia
SR leukemia = test system: SR leukemia
EKVX NSCLC = test system: EKVX NSCLC
SN12C renal = test system: SN12C renal
CAKI-1 renal = test system: CAKI-1 renal
SK-MEL-28 melanoma = test system: SK-MEL-28 melanoma
SF-539 CNS = test system: SF-539 CNS
HOP-92 NSCLC = test system: HOP-92 NSCLC
MDA-MB-435 = test system: MDA-MB-435
BT-549 breast = test system: BT-549 breast
OVCAR-5 ovarian = test system: OVCAR-5 ovarian
K-562 leukemia = test system: K-562 leukemia
PC-3 prostate = test system: PC-3 prostate
MCF7 breast = test system: MCF7 breast
SF-295 CNS = test system: SF-295 CNS
HT29 colon = test system: HT29 colon
ACHN renal = test system: ACHN renal
HS 578T breast = test system: HS 578T breast
CCRF-CEM leukemia = test system: CCRF-CEM leukemia
SK-MEL-5 melanoma = test system: SK-MEL-5 melanoma
RXF 393 renal = test system: RXF 393 renal
A549 NSCLC = test system: A549 NSCLC
MDA-MB-231 breast = test system: MDA-MB-231 breast
M14 melanoma = test system: M14 melanoma
T-47D breast = test system: T-47D breast
NCI-H522 lung = test system: NCI-H522 lung
HCT-15 colon = test system: HCT-15 colon
OVCAR-8 ovarian = test system: OVCAR-8 ovarian
MALME-3M melanoma = test system: MALME-3M melanoma
HOP-62 NSCLC = test system: HOP-62 NSCLC
OVCAR-3 ovarian = test system: OVCAR-3 ovarian
UACC-257 melanoma = test system: UACC-257 melanoma
SK-OV-3 ovarian = test system: SK-OV-3 ovarian
SW-620 colon = test system: SW-620 colon

With `CC1=C(C)C(=O)C(NCCN2CCOCC2)=C(Br)C1=O` the GI50 (IGROV1 ovarian) was 10.5 µM, the TGI (IGROV1 ovarian) was 22.9 µM and the GI50 (HCT-116 colon) was 2.93 µM. For the same compound, the TGI (HCT-116 colon) was 10.9 µM, the GI50 (NCI-H460 lung) was 16.1 µM and the TGI (NCI-H460 lung) was 34.2 µM. It also gave a GI50 (COLO 205 colon) of 17.9 µM, a TGI (COLO 205 colon) of 33.6 µM and a GI50 (OVCAR-4 ovarian) of 5.02 µM. The TGI (OVCAR-4 ovarian) was 17.6 µM, the GI50 (U251 CNS) was 12 µM and the TGI (U251 CNS) was 25.2 µM. It also gave a GI50 (DU-145 prostate) of 12.7 µM, a TGI (DU-145 prostate) of 25.7 µM and a GI50 (786-0 renal) of 17.8 µM. It also gave a TGI (786-0 renal) of 32.1 µM, a GI50 (RPMI-8226 leukemia) of 13.9 µM and a TGI (RPMI-8226 leukemia) of 55 µM. For the same compound, the GI50 (MOLT-4 leukemia) was 5.35 µM, the TGI (MOLT-4 leukemia) was 32.8 µM and the GI50 (SK-MEL-2 melanoma) was 11.7 µM. For the same compound, the TGI (SK-MEL-2 melanoma) was 24.2 µM, the GI50 (UO-31 renal) was 11 µM and the TGI (UO-31 renal) was 23.2 µM. It also gave a GI50 (NCI-H226 lung) of 12.1 µM, a TGI (NCI-H226 lung) of 26.7 µM and a GI50 (SF-268 CNS) of 12.8 µM. It also gave a TGI (SF-268 CNS) of 32 µM, a GI50 (SNB-75 CNS) of 18.5 µM and a TGI (SNB-75 CNS) of 34.2 µM. It also gave a GI50 (NCI-H23 lung) of 3.84 µM, a TGI (NCI-H23 lung) of 16.3 µM and a GI50 (MDA-MB-468 breast) of 0.222 µM. It also gave a TGI (MDA-MB-468 breast) of 0.885 µM, a GI50 (LOX IMVI melanoma) of 2.33 µM and a TGI (LOX IMVI melanoma) of 8.36 µM. The GI50 (KM12 colon) was 16.7 µM, the TGI (KM12 colon) was 39.6 µM and the GI50 (TK-10 renal) was 19.2 µM. It also gave a TGI (TK-10 renal) of 33.3 µM, a GI50 (HCC-2998 colon) of 15.3 µM and a TGI (HCC-2998 colon) of 28.7 µM. The GI50 (SNB-19 CNS) was 16.3 µM, the TGI (SNB-19 CNS) was 30.5 µM and the GI50 (UACC-62 melanoma) was 5.78 µM. It also gave a TGI (UACC-62 melanoma) of 18.4 µM, a GI50 (A498 renal) of 19.2 µM and a TGI (A498 renal) of 34 µM. The GI50 (HL-60(TB) leukemia) was 2.46 µM, the TGI (HL-60(TB) leukemia) was 7.24 µM and the GI50 (SR leukemia) was 19.2 µM. For the same compound, the TGI (SR leukemia) was 66.7 µM, the GI50 (EKVX NSCLC) was 12.8 µM and the TGI (EKVX NSCLC) was 25.9 µM. For the same compound, the GI50 (SN12C renal) was 14.9 µM, the TGI (SN12C renal) was 28.2 µM and the GI50 (CAKI-1 renal) was 10.7 µM. It also gave a TGI (CAKI-1 renal) of 23.3 µM, a GI50 (SK-MEL-28 melanoma) of 14.5 µM and a TGI (SK-MEL-28 melanoma) of 28 µM. It also gave a GI50 (SF-539 CNS) of 17 µM, a TGI (SF-539 CNS) of 31.5 µM and a GI50 (HOP-92 NSCLC) of 13.3 µM. For the same compound, the TGI (HOP-92 NSCLC) was 28 µM, the GI50 (MDA-MB-435) was 1.81 µM and the TGI (MDA-MB-435) was 3.35 µM. For the same compound, the GI50 (BT-549 breast) was 13.7 µM, the TGI (BT-549 breast) was 26.6 µM and the GI50 (OVCAR-5 ovarian) was 6.43 µM. For the same compound, the TGI (OVCAR-5 ovarian) was 19.3 µM, the GI50 (K-562 leukemia) was 3.3 µM and the TGI (K-562 leukemia) was 61.9 µM. For the same compound, the GI50 (PC-3 prostate) was 16.9 µM, the TGI (PC-3 prostate) was 50.6 µM and the GI50 (MCF7 breast) was 3.66 µM. The TGI (MCF7 breast) was 15.2 µM, the GI50 (SF-295 CNS) was 17.8 µM and the TGI (SF-295 CNS) was 31.9 µM. It also gave a GI50 (HT29 colon) of 16 µM, a TGI (HT29 colon) of 31.3 µM and a GI50 (ACHN renal) of 13.8 µM. It also gave a TGI (ACHN renal) of 26.8 µM, a GI50 (HS 578T breast) of 9.04 µM and a TGI (HS 578T breast) of 34.6 µM. For the same compound, the GI50 (CCRF-CEM leukemia) was 3.44 µM, the TGI (CCRF-CEM leukemia) was greater than 100 µM and the GI50 (SK-MEL-5 melanoma) was 11.6 µM. For the same compound, the TGI (SK-MEL-5 melanoma) was 23.8 µM, the GI50 (RXF 393 renal) was 12.7 µM and the TGI (RXF 393 renal) was 25.3 µM. It also gave a GI50 (A549 NSCLC) of 17.4 µM, a TGI (A549 NSCLC) of 34 µM and a GI50 (MDA-MB-231 breast) of 5.65 µM. The TGI (MDA-MB-231 breast) was 18.7 µM, the GI50 (M14 melanoma) was 13.6 µM and the TGI (M14 melanoma) was 26.7 µM. It also gave a GI50 (T-47D breast) of 2.01 µM, a TGI (T-47D breast) of 4.74 µM and a GI50 (NCI-H522 lung) of 3.01 µM. The TGI (NCI-H522 lung) was 11.7 µM, the GI50 (HCT-15 colon) was 15.9 µM and the TGI (HCT-15 colon) was 30.9 µM. For the same compound, the GI50 (OVCAR-8 ovarian) was 3.84 µM, the TGI (OVCAR-8 ovarian) was 15.8 µM and the GI50 (MALME-3M melanoma) was 2.25 µM. It also gave a TGI (MALME-3M melanoma) of 5.37 µM, a GI50 (HOP-62 NSCLC) of 14.6 µM and a TGI (HOP-62 NSCLC) of 28.1 µM. The GI50 (OVCAR-3 ovarian) was 2.1 µM, the TGI (OVCAR-3 ovarian) was 7.16 µM and the GI50 (UACC-257 melanoma) was 2.55 µM. It also gave a TGI (UACC-257 melanoma) of 7 µM, a GI50 (SK-OV-3 ovarian) of 12.5 µM and a TGI (SK-OV-3 ovarian) of 25.2 µM. For the same compound, the GI50 (SW-620 colon) was 2.94 µM and the TGI (SW-620 colon) was 14 µM.
